Test results: patent US20260015358A1, “BICYCLIC DERIVATIVES, COMPOSITIONS AND USES THEREOF” (Danatlas Pharmaceuticals Co., Ltd., priority 2023, published 2026)

Assays:
[1] = target: T1, WRN [UniPro: Q14191 (WRN_HUMAN), N500-C946] (Homo sapiens (Human), UniProt Q14191); assay: WRN ATPase assay (ADP-Glo); format: biochemical; conditions: WRN enzymatic activity assay
Procedure: WRN ATPase assay was initiated to evaluate potential inhibitory effect of compounds for ATP hydrolysis activity of WRN protein. WRN [UniPro: Q14191 (WRN_HUMAN), N500-C946] was expressed and purified in insect system and stored at −80° C. in aliquots. […] ADP quantity produced from ATP hydrolysis by WRN catalytic reaction was measured using a commercially available ADP-Glo Assay (ADP-Glo™ Kinase Assay from Promega, 10000 assays, #V9102). […] Compounds dissolved in DMSO (Sigma, D8418) were plated into a 96-well intermediate plate (BioFil, VWP-032-096) for 3-fold serial titration for 10 points using DMSO, and well-to-well transfer the titrated compounds into another 96-well intermediate plate including assay buffer in advance. Shake the 96-well intermediate plate at 600 rpm for 10 min to fully mix. Specifically, a 4× working mixture of WRN was diluted to a concentration of 8 nM in assay buffer. […] After centrifuging at 1000 rpm and shaking at 500 rpm, the assay plate was pre-incubated for 30 min. Then, 5 μL 2×FORKF DNA and ATP working mixture was dispensed into assay plate. Plate was sealed, centrifuged and incubated for an additional 40 min. at 37° C. The reaction was stopped with the addition of 10 μL of the first ADP-Glo reagent and incubated for 40 min. to remove the excess amount of ATP. Afterwards, 20 μL of ATP detection reagent was added and incubated for 30 min. before reading. Luminescence output was recorded using BMG CLARIO star plus reader. Each concentration of compound was tested in duplicates in the assay plate. Average luminescence signal of high control (Wells with 1% DMSO) was calculated as High Control (HC). Average luminescence signal of low control (Wells with no WRN protein) was calculated as Low control (LC).
IC50 values were determined by fitting the data to the standard 4 parameters with Hill Slope using GraphPad Prism software.

[2] = target: T1, WRN [UniPro: Q14191 (WRN_HUMAN), N500-C946]; assay: WRN unwinding assay (FORKF DNA, fluorescence); format: biochemical; conditions: Table 14

T1 sequence (Q14191 500-946): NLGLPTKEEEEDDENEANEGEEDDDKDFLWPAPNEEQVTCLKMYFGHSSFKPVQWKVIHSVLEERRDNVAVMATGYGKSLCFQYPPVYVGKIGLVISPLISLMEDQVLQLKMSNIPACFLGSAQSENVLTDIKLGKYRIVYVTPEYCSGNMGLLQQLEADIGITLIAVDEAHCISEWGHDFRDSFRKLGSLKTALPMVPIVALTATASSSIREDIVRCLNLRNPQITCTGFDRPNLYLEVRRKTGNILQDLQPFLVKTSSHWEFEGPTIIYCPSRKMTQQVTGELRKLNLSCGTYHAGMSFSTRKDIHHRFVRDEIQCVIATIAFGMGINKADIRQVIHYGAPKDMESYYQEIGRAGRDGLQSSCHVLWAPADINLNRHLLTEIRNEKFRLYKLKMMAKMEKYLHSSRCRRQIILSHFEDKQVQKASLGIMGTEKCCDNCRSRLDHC

SMILES | IC50 [1] [nM] | IC50 [2] [nM]
CCc1c(N2CCN(C(=O)c3sc4cccnc4c3N)CC2)c(=O)n2nc(C3=CCOCC3)nc2n1CC(=O)Nc1ccc(C(F)(F)F)cc1Cl [Example 2, 2-(6-(4-(3-Aminothieno[3,2-b]pyridine-2-carbonyl)piperazin-1-yl)-2-(3,6-dihydro-2H-pyran-4-yl)-5-ethyl-7-oxo-[1,2,4]triazolo[1,5-a]pyrimidin-4(7H)-yl)-N-(2-chloro-4-(trifluoromethyl)phenyl)acetamide] | 100 to 1000 | 100 to 1000
CCNC(=NCCCN(C)C)N1CCN(c2c(CC)n(CC(=O)Nc3ccc(C(F)(F)F)cc3C)c3nc(C4=CCOCC4)nn3c2=O)CC1 [Example 5, 2-(2-(3,6-Dihydro-2H-pyran-4-yl)-6-(4-(N′-(3-(dimethylamino)propyl)-N-ethylcarbamimidoyl)piperazin-1-yl)-5-ethyl-7-oxo-[1,2,4]triazolo[1,5-a]pyrimidin-4(7H)-yl)-N-(2-methyl-4-(trifluoromethyl)phenyl)acetamide] | > 1000 | > 1000
CCc1c(N2CCN(C(=O)c3sc4cnccc4c3N)CC2)c(=O)n2nc(C3=CCOCC3)nc2n1CC(=O)Nc1ccc(C(F)(F)F)cc1Cl [Example 6, 2-(6-(4-(3-Aminothieno[2,3-c]pyridine-2-carbonyl)piperazin-1-yl)-2-(3,6-dihydro-2H-pyran-4-yl)-5-ethyl-7-oxo-[1,2,4]triazolo[1,5-a]pyrimidin-4(7H)-yl)-N-(2-chloro-4-(trifluoromethyl)phenyl)acetamide] | 100 to 1000 | < 100
CCc1c(N2CCN(c3nnc(C(F)F)s3)CC2)c(=O)n2nc(C3=CCOCC3)nc2n1CC(=O)Nc1ccc(C(F)(F)F)cc1Cl [Example 8, N-(2-Chloro-4-(trifluoromethyl)phenyl)-2-(6-(4-(5-(difluoromethyl)-1,3,4-thiadiazol-2-yl)piperazin-1-yl)-2-(3,6-dihydro-2H-pyran-4-yl)-5-ethyl-7-oxo-[1,2,4]triazolo[1,5-a]pyrimidin-4(7H)-yl)acetamide] | > 1000 | > 1000
CCc1c(N2CCN(C(=O)c3cc(-c4cc(OC)ncc4F)[nH]n3)CC2)c(=O)n2nc(C3=CCOCC3)nc2n1CC(=O)Nc1ccc(C(F)(F)F)cc1Cl [Example 9, N-(2-Chloro-4-(trifluoromethyl)phenyl)-2-(2-(3,6-dihydro-2H-pyran-4-yl)-5-ethyl-6-(4-(5-(5-fluoro-2-methoxypyridin-4-yl)-1H-pyrazole-3-carbonyl)piperazin-1-yl)-7-oxo-[1,2,4]triazolo[1,5-a]pyrimidin-4(7H)-yl)acetamide] | 100 to 1000 | > 1000
CCc1c(N2CCN(S(=O)(=O)CC)CC2)c(=O)n2nc(C3=CCOCC3)nc2n1CC(=O)Nc1ccc(C(F)(F)F)cc1Cl [Example 11, N-(2-Chloro-4-(trifluoromethyl)phenyl)-2-(2-(3,6-dihydro-2H-pyran-4-yl)-5-ethyl-6-(4-(ethylsulfonyl)piperazin-1-yl)-7-oxo-[1,2,4]triazolo[1,5-a]pyrimidin-4(7H)-yl)acetamide] | 100 to 1000 | > 1000
CCc1c(N2CCN(C(=O)Nc3[nH]ncc3C(F)(F)F)CC2)c(=O)n2nc(C3=CCOCC3)nc2n1CC(=O)Nc1ccc(C(F)(F)F)cc1Cl [Example 18, 4-(4-(2-((2-Chloro-4-(trifluoromethyl)phenyl)amino)-2-oxoethyl)-2-(3,6-dihydro-2H-pyran-4-yl)-5-ethyl-7-oxo-4,7-dihydro-[1,2,4]triazolo[1,5-a]pyrimidin-6-yl)-N-(4-(trifluoromethyl)-1H-pyrazol-5-yl)piperazine-1-carboxamide] | 100 to 1000 | 100 to 1000
CCc1c(N2CCN(C(=O)c3[nH]ncc3C(F)(F)F)CC2)c(=O)n2nc(C3=CCOCC3)nc2n1CC(=O)Nc1ccc(C(F)(F)F)cc1Cl [Example 19, N-(2-Chloro-4-(trifluoromethyl)phenyl)-2-(2-(3,6-dihydro-2H-pyran-4-yl)-5-ethyl-7-oxo-6-(4-(4-(trifluoromethyl)-1H-pyrazole-5-carbonyl)piperazin-1-yl)-[1,2,4]triazolo[1,5-a]pyrimidin-4(7H)-yl)acetamide] | > 1000 | > 1000
CCc1c(N2CCN(c3noc4cccnc34)CC2)c(=O)n2nc(C3=CCOCC3)nc2n1CC(=O)Nc1ccc(C(F)(F)F)cc1Cl [Example 23, N-(2-Chloro-4-(trifluoromethyl)phenyl)-2-(2-(3,6-dihydro-2H-pyran-4-yl)-5-ethyl-6-(4-(isoxazolo[4,5-b]pyridin-3-yl)piperazin-1-yl)-7-oxo-[1,2,4]triazolo[1,5-a]pyrimidin-4 (7H)-yl)acetamide] | > 1000 | > 1000

The next lines start with the values.

IC50 [1] [nM] | IC50 [2] [nM] | SMILES
< 100 | < 100 | CCc1c(N2CCN(C(=O)c3cnc4[nH]ncc4c3O)CC2)c(=O)n2nc(C3=CCOCC3)nc2n1CC(=O)Nc1ccc(C(F)(F)F)cc1Cl [Example 3, N-(2-Chloro-4-(trifluoromethyl)phenyl)-2-(2-(3,6-dihydro-2H-pyran-4-yl)-5-ethyl-6-(4-(4-hydroxy-1H-pyrazolo[3,4-b]pyridine-5-carbonyl)piperazin-1-yl)-7-oxo-[1,2,4]triazolo[1,5-a]pyrimidin-4(7H)-yl)acetamide]
< 100 | < 100 | CCc1c(N2CCN(C(=O)c3c(O)cc(C)oc3=O)CC2)c(=O)n2nc(C3=CCOCC3)nc2n1CC(=O)Nc1ccc(C(F)(F)F)cc1Cl [Example 4, N-(2-Chloro-4-(trifluoromethyl)phenyl)-2-(2-(3,6-dihydro-2H-pyran-4-yl)-5-ethyl-6-(4-(4-hydroxy-6-methyl-2-oxo-2H-pyran-3-carbonyl)piperazin-1-yl)-7-oxo-[1,2,4]triazolo[1,5-a]pyrimidin-4(7H)-yl)acetamide]
< 100 | < 100 | CCc1c(N2CCN(C(=O)NS(=O)(=O)c3cnn(C)c3)CC2)c(=O)n2nc(C3=CCOCC3)nc2n1CC(=O)Nc1ccc(C(F)(F)F)cc1Cl [Example 14, 4-(4-(2-((2-Chloro-4-(trifluoromethyl)phenyl)amino)-2-oxoethyl)-2-(3,6-dihydro-2H-pyran-4-yl)-5-ethyl-7-oxo-4,7-dihydro-[1,2,4]triazolo[1,5-a]pyrimidin-6-yl)-N-((1-methyl-1H-pyrazol-4-yl)sulfonyl)piperazine-1-carboxamide]
< 100 | < 100 | CCc1c(N2CCN(C(=O)c3ncnc4cn[nH]c34)CC2)c(=O)n2nc(C3=CCOCC3)nc2n1CC(=O)Nc1ccc(C(F)(F)F)cc1Cl [Example 17, 2-(6-(4-(1H-Pyrazolo[4,3-d]pyrimidine-7-carbonyl)piperazin-1-yl)-2-(3,6-dihydro-2H-pyran-4-yl)-5-ethyl-7-oxo-[1,2,4]triazolo[1,5-a]pyrimidin-4(7H)-yl)-N-(2-chloro-4-(trifluoromethyl)phenyl)acetamide]
< 100 | < 100 | CCc1c(N2CCN(C(=O)c3n[nH]c(=O)[nH]c3=O)CC2)c(=O)n2nc(C3=CCOCC3)nc2n1CC(=O)Nc1ccc(C(F)(F)F)cc1Cl [Example 22, N-(2-Chloro-4-(trifluoromethyl)phenyl)-2-(2-(3,6-dihydro-2H-pyran-4-yl)-6-(4-(3,5-dioxo-2,3,4,5-tetrahydro-1,2,4-triazine-6-carbonyl)piperazin-1-yl)-5-ethyl-7-oxo-[1,2,4]triazolo[1,5-a]pyrimidin-4(7H)-yl)acetamide]
